Assay results published in US9993494B2, “Compositions and methods for treating fibrotic disease” (eFFECTOR Therapeutics, Inc., priority 2014, dated 2018).

System: normal human lung fibroblasts
Assay: Ribosomal profiling: translational efficiency in TGFβ-treated fibroblasts
Format: cell-based
Settings: TGFβ-treated fibroblasts
Outline: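 Cells lysed on ice after a cold PBS wash containing cycloheximide. Ribosome-protected fragments and total mRNA were prepared with the ARTseq kit and sequenced by RNA-Seq. Reads were trimmed, mapped to the human genome and counted uniquely over coding regions per gene, with low-count genes excluded before differential translational-efficiency analysis.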

CC(C=CC(=O)NO)=CC(C)C(=O)c1ccc(N(C)C)cc1 (stereo not drawn) [TSA, 7-[4-(dimethylamino)phenyl]-N-hydroxy-4,6-dimethyl-7-oxohepta-2,4-dienamide]
renormalizing the translational profile of RPL9 (ENSG00000163682): − (− = <0.9) | renormalizing the translational profile of RHOBTB3 (ENSG00000164292): − (− = <0.9) | renormalizing the translational profile of RPL36AL (ENSG00000165502): − (− = <0.9) | renormalizing the translational profile of RPL27A (ENSG00000166441): − (− = <0.9) | renormalizing the translational profile of RP11-382A20.3.1 (ENSG00000166503): − (− = <0.9) | renormalizing the translational profile of ANKDD1A (ENSG00000166839): − (− = <0.9) | renormalizing the translational profile of RPL13 (ENSG00000167526): − (− = <0.9) | renormalizing the translational profile of EEF2 (ENSG00000167658): + (+ = 0.9 to 1.5) | renormalizing the translational profile of CA5B (ENSG00000169239): + (+ = 0.9 to 1.5) | renormalizing the translational profile of KIAA1024 (ENSG00000169330): − (− = <0.9) | renormalizing the translational profile of MURC (ENSG00000170681): + (+ = 0.9 to 1.5) | renormalizing the translational profile of HTRA3 (ENSG00000170801): − (− = <0.9) | renormalizing the translational profile of PDE7B (ENSG00000171408): ++ (++ = 1.5 to 2.0) | renormalizing the translational profile of LPAR3 (ENSG00000171517): ++ (++ = 1.5 to 2.0) | renormalizing the translational profile of CTPS (ENSG00000171793): − (− = <0.9) | renormalizing the translational profile of QARS (ENSG00000172053): − (− = <0.9) | renormalizing the translational profile of RPL38 (ENSG00000172809): − (− = <0.9) | renormalizing the translational profile of MRPL45 (ENSG00000174100): − (− = <0.9) | renormalizing the translational profile of RPL4 (ENSG00000174444): − (− = <0.9) | renormalizing the translational profile of RPL15 (ENSG00000174748): − (− = <0.9) | renormalizing the translational profile of DES (ENSG00000175084): − (− = <0.9) | renormalizing the translational profile of EIF3F (ENSG00000175390): − (− = <0.9) | renormalizing the translational profile of CLCF1 (ENSG00000175505): + (+ = 0.9 to 1.5) | renormalizing the translational profile of AMIGO3 (ENSG00000176020): + (+ = 0.9 to 1.5) | renormalizing the translational profile of C14orf49 (ENSG00000176438): − (− = <0.9) | renormalizing the translational profile of RPLP2 (ENSG00000177600): − (− = <0.9) | renormalizing the translational profile of IMPDH2 (ENSG00000178035): − (− = <0.9) | renormalizing the translational profile of DNAJC22 (ENSG00000178401): − (− = <0.9) | renormalizing the translational profile of RPL35A (ENSG00000182899): − (− = <0.9) | renormalizing the translational profile of LENG9 (ENSG00000182909): − (− = <0.9) | renormalizing the translational profile of C22orf32 (ENSG00000183172): − (− = <0.9) | renormalizing the translational profile of NPW (ENSG00000183971): − (− = <0.9) | renormalizing the translational profile of PDE4B (ENSG00000184588): + (+ = 0.9 to 1.5) | renormalizing the translational profile of ROBO2 (ENSG00000185008): − (− = <0.9) | renormalizing the translational profile of PTCH1 (ENSG00000185920): − (− = <0.9) | renormalizing the translational profile of POLR1D (ENSG00000186184): − (− = <0.9) | renormalizing the translational profile of DYNC2H1 (ENSG00000187240): − (− = <0.9) | renormalizing the translational profile of RPL14 (ENSG00000188846): + (+ = 0.9 to 1.5) | renormalizing the translational profile of LRRK2 (ENSG00000188906): − (− = <0.9) | renormalizing the translational profile of NACA (ENSG00000196531): − (− = <0.9) | renormalizing the translational profile of LAMB3 (ENSG00000196878): − (− = <0.9) | renormalizing the translational profile of PCBP2 (ENSG00000197111): + (+ = 0.9 to 1.5) | renormalizing the translational profile of MAP3K5 (ENSG00000197442): + (+ = 0.9 to 1.5) | renormalizing the translational profile of RPL37A (ENSG00000197756): − (− = <0.9) | renormalizing the translational profile of RPL12 (ENSG00000197958): − (− = <0.9) | renormalizing the translational profile of LPAR1 (ENSG00000198121): − (− = <0.9) | renormalizing the translational profile of RPL23A (ENSG00000198242): − (− = <0.9) | renormalizing the translational profile of PLN (ENSG00000198523): − (− = <0.9) | renormalizing the translational profile of RPL10A (ENSG00000198755): − (− = <0.9) | renormalizing the translational profile of CES1 (ENSG00000198848): − (− = <0.9) | renormalizing the translational profile of RPL39 (ENSG00000198918): − (− = <0.9) | renormalizing the translational profile of CARD16 (ENSG00000204397): − (− = <0.9) | renormalizing the translational profile of MICA (ENSG00000204520): − (− = <0.9) | renormalizing the translational profile of GNB2L1 (ENSG00000204628): − (− = <0.9) | renormalizing the translational profile of RPL17 (ENSG00000215472): − (− = <0.9) | renormalizing the translational profile of RPL41 (ENSG00000229117): − (− = <0.9) | renormalizing the translational profile of ARPC1A (ENSG00000241685): + (+ = 0.9 to 1.5) | renormalizing the translational profile of CHCHD10 (ENSG00000250479): − (− = <0.9) | renormalizing the translational profile of EEF1G (ENSG00000254772): − (− = <0.9) | number of genes whose translational efficiency was uniquely modulated by the compound (duplicate ribosomal profiles): 13 genes | effect in renormalizing the translational profile of the gene (gene RPS2 (ENSG00000140988)): − (− = <0.9) | effect in renormalizing the translational profile of the gene (gene RPS3 (ENSG00000149273)): − (− = <0.9) | effect in renormalizing the translational profile of the gene (gene RPS3A (ENSG00000145425)): − (− = <0.9) | effect in renormalizing the translational profile of the gene (gene RPS4X (ENSG00000198034)): − (− = <0.9) | effect in renormalizing the translational profile of the gene (gene RPS4Y1 (ENSG00000129824)): − (− = <0.9) | effect in renormalizing the translational profile of the gene (gene RPS5 (ENSG00000083845)): − (− = <0.9)
